From ChEMBL document CHEMBL5137077, “Peptide-to-Small Molecule: A Pharmacophore-Guided Small Molecule Lead Generation Strategy from High-Affinity Macrocyclic Peptides” (J Med Chem, 2022)
pIC50: −log10 of the molar value. Positions of bridges follow the written chain, without caps; N, C: chain ends. Non-standard residues stand in square brackets, D forms with d. Residues, ends and D or L forms follow the SMILES beside them. Phe(4-CONH2) = NC(=O)c1ccc(C[C@H](N)C(=O)O)cc1; NHexGly = CCCCCCNCC(=O)O; Sar = CNCC(=O)O

Experiments:
[1] = molecular target: Indolethylamine N-methyltransferase (Homo sapiens, UniProt O95050); test: Inhibition of N-terminal 6His-tagged full length human recombinant INMT (1 to 263 residues) expressed in Escherichia coli BL21 (DE3) cells using S-(5'-Adenosyl)-L-methionine chloride dihydrochloride and 9H-pyrido[3,4-b]indole as substrate incubated for 2.5 hrs by MTase-Glo assay
HEK293 = test: Cytotoxicity against HEK293 cells assessed as reduction in ATP incubated for 10 mins by CellTiter-Glo luminescence assay; format: toxicity, cell-based; settings: human, hek293, 10 min
[2] = molecular target: T1, Nicotinamide N-methyltransferase (Homo sapiens, UniProt P40261); test: Inhibition of N-terminal 6His-tagged full length human recombinant NNMT (1 to 264 residues) expressed in Escherichia coli BL21 (DE3) cells using S-adenosyl-L-methionine and NAM as substrate incubated for 2 hrs by RapidFire Mass Spectrometry
T1 sequence (P40261 whole entry): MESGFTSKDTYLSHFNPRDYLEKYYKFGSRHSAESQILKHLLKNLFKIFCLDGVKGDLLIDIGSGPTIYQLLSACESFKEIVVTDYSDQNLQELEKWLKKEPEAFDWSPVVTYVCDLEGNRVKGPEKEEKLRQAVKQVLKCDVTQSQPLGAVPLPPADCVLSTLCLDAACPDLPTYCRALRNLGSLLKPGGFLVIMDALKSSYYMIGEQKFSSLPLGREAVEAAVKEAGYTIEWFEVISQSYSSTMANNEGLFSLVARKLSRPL

[3] = molecular target: T1, Nicotinamide N-methyltransferase; test: Inhibition of N-terminal 6His-tagged full length human recombinant NNMT (1 to 264 residues) expressed in Escherichia coli BL21 (DE3) cells using S-adenosyl-L-methionine and NAM as substrate incubated for 22 to 24 hrs by RapidFire Mass Spectrometry
[4] = molecular target: T1, Nicotinamide N-methyltransferase; test: Inhibition of NNMT in HEK293 cells measured after 20 to 24 hrs by RapidFire Mass Spectrometry; format: cell-based

Chain of Indolethylamine N-methyltransferase (O95050 whole entry, the tested form may be a part): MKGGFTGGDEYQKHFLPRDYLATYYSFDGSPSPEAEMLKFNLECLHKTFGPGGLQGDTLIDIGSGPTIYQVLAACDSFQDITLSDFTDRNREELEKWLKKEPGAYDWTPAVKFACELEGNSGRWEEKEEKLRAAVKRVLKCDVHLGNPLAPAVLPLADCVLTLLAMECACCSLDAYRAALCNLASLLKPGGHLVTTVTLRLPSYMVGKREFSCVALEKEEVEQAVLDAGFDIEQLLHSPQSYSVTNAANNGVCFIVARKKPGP

Compound	pIC50 [1]	pIC50 [3]	other results
Cc1ccc2c(c1)cc([C@H]1C[C@H](n3nc(C)cc3CN)CN1C(=O)c1cnc3[nH]c(C)cc3c1)n2Cc1ccc(Cl)cc1	< 4.00		CC20 (HEK293): > 10 µM
CCCCCCN(CC(=O)N[C@@H](Cc1c[nH]c2ccccc12)C(N)=O)C(=O)CNC(=O)[C@H](CCCNC(=N)N)NC(C)=O (Ac-RG[NHexGly]W-NH2)			pIC50 [2]: < 4.52
CCCCCCN1CC(=O)N[C@@H](Cc2c[nH]c3ccccc23)C(=O)N2CCC[C@H]2C(=O)N[C@H](C(N)=O)CSCC(=O)N[C@@H](Cc2ccccc2)C(=O)N[C@@H](Cc2ccc(C(N)=O)cc2)C(=O)N[C@@H](C)C(=O)NCC1=O ({CH2CO}-F[Phe(4-CONH2)]AG[NHexGly]WPC-NH2; thioether N-8)		< 4.00	
C[C@@H]1NC(=O)CNC(=O)[C@H](CCCNC(=N)N)NC(=O)[C@H](Cc2ccc(C(N)=O)cc2)NC(=O)[C@H](Cc2ccccc2)NC(=O)CSC[C@@H](C(N)=O)NC(=O)[C@@H]2CCCN2C(=O)[C@H](Cc2c[nH]c3ccccc23)NC1=O ({CH2CO}-F[Phe(4-CONH2)]RGAWPC-NH2; thioether N-8)		< 4.00	
CCCCCCN1CC(=O)N[C@@H](C)C(=O)N2CCC[C@H]2C(=O)N[C@H](C(N)=O)CSCC(=O)N[C@@H](Cc2ccccc2)C(=O)N[C@@H](Cc2ccc(C(N)=O)cc2)C(=O)N[C@@H](CCCNC(=N)N)C(=O)NCC1=O ({CH2CO}-F[Phe(4-CONH2)]RG[NHexGly]APC-NH2; thioether N-8)		< 4.00	
CCCCCCN1CC(=O)N[C@@H](Cc2c[nH]c3ccccc23)C(=O)N2CCC[C@H]2C(=O)N[C@H](C(=O)NCC(N)=O)CSCC(=O)N[C@@H](Cc2ccccc2)C(=O)N[C@@H](Cc2ccc(C(N)=O)cc2)C(=O)N[C@@H](CCCNC(=N)N)C(=O)NCC1=O ({CH2CO}-F[Phe(4-CONH2)]RG[NHexGly]WPCG-NH2; thioether N-8)	< 4.00		
CN1CC(=O)N[C@@H](Cc2c[nH]c3ccccc23)C(=O)N2CCC[C@H]2C(=O)N[C@H](C(N)=O)CSCC(=O)N[C@@H](Cc2ccccc2)C(=O)N[C@@H](Cc2ccc(C(N)=O)cc2)C(=O)N[C@@H](CCCNC(=N)N)C(=O)NCC1=O ({CH2CO}-F[Phe(4-CONH2)]RG[Sar]WPC-NH2; thioether N-8)		< 4.52	

Second part, led by results:

pIC50 [1]	pIC50 [3]	Compound	other results
< 4.00		Cc1ccc2c(c1)cc([C@H]1C[C@H](n3ccnc3CN)CN1C(=O)c1cnc3[nH]ccc3c1)n2Cc1ccc(Cl)cc1	
< 4.00		NCc1nccn1[C@H]1C[C@H](c2nc3ccccc3n2Cc2ccccc2)N(C(=O)c2cnc3[nH]ccc3c2)C1	
5.40		Nc1ncnc2c1ncn2[C@@H]1O[C@H](C[C@@H](N)CC[C@H](N)C(=O)O)[C@@H](O)[C@H]1O [SINEFUNGIN]	pIC50 [4]: < 4.00; pIC50 [2]: 5.28
